According to ChEMBL document CHEMBL1152860, “Synthesis and antiproliferative activity of 3-amino-N-phenyl-1H-indazole-1-carboxamides” (2009):
Calls of active or inactive are those of the source. No cut-off for these calls is given here.

Columns and labels:
[1] = system: K562; assay: Growth inhibition of drug-resistant human K562 cells after 48 hrs by SRB assay; assay type: functional; conditions: K562, 48 h
[2] = system: K562; assay: Growth inhibition of human K562 cells after 48 hrs by SRB assay; assay type: functional; conditions: K562, 48 h
[3] = system: SK-OV-3; assay: Growth inhibition of human SKOV3 cells after 48 hrs by SRB assay; assay type: functional; conditions: SK-OV-3, 48 h
[4] = system: HT-29; assay: Growth inhibition of human HT-29 cells after 48 hrs by SRB assay; assay type: functional; conditions: HT-29, 48 h
[5] = system: SK-MEL-5; assay: Growth inhibition of human SK-MEL-5 cells after 48 hrs by SRB assay; assay type: functional; conditions: SK-MEL-5, 48 h
[6] = system: DU-145; assay: Growth inhibition of human DU145 cells after 48 hrs by SRB assay; assay type: functional; conditions: DU-145, 48 h
[7] = system: HCC 2998; assay: Growth inhibition of human HCC2998 cells after 48 hrs by SRB assay; assay type: functional; conditions: HCC 2998, 48 h
[8] = system: SK-MEL-28; assay: Growth inhibition of human SK-MEL-28 cells after 48 hrs by SRB assay; assay type: functional; conditions: SK-MEL-28, 48 h
[9] = system: NCI-H522; assay: Growth inhibition of human NCI-H522 cells after 48 hrs by SRB assay; assay type: functional; conditions: NCI-H522, 48 h
[10] = system: HOP-92; assay: Growth inhibition of human HOP92 cells after 48 hrs by SRB assay; assay type: functional; conditions: HOP-92, 48 h
[11] = system: LOX IMVI; assay: Growth inhibition of human LOXIMVI cells after 48 hrs by SRB assay; assay type: functional
[12] = system: MDA-MB-435; assay: Growth inhibition of human MDA-MB-435 cells after 48 hrs by SRB assay; assay type: functional; conditions: MDA-MB-435, 48 h
[13] = system: NCI-H226; assay: Growth inhibition of human NCI-H226 cells after 48 hrs by SRB assay; assay type: functional; conditions: NCI-H226, 48 h
[14] = system: SF-295; assay: Growth inhibition of human SF295 cells after 48 hrs by SRB assay; assay type: functional; conditions: SF-295, 48 h
[15] = system: HCT-116; assay: Growth inhibition of human HCT116 cells after 48 hrs by SRB assay; assay type: functional; conditions: HCT-116, 48 h
[16] = system: SR; assay: Growth inhibition of human SR cells after 48 hrs by SRB assay; assay type: functional
[17] = system: UACC-62; assay: Growth inhibition of human UACC62 cells after 48 hrs by SRB assay; assay type: functional; conditions: UACC-62, 48 h
[18] = system: UACC-257; assay: Growth inhibition of human UACC257 cells after 48 hrs by SRB assay; assay type: functional; conditions: UACC-257, 48 h
[19] = system: TK-10; assay: Growth inhibition of human TK10 cells after 48 hrs by SRB assay; assay type: functional; conditions: TK-10, 48 h
[20] = system: OVCAR-5; assay: Growth inhibition of human OVCAR5 cells after 48 hrs by SRB assay; assay type: functional; conditions: OVCAR-5, 48 h
[21] = system: BT-549; assay: Growth inhibition of human BT549 cells after 48 hrs by SRB assay; assay type: functional; conditions: BT-549, 48 h
[22] = system: UO-31; assay: Growth inhibition of human UO31 cells after 48 hrs by SRB assay; assay type: functional; conditions: UO-31, 48 h
[23] = system: NCI-H460; assay: Growth inhibition of human NCI-H460 cells after 48 hrs by SRB assay; assay type: functional; conditions: NCI-H460, 48 h
[24] = system: COLO 205; assay: Growth inhibition of human COLO205 cells after 48 hrs by SRB assay; assay type: functional; conditions: COLO 205, 48 h
[25] = system: ACHN; assay: Growth inhibition of human ACHN cells after 48 hrs by SRB assay; assay type: functional
[26] = system: HOP-62; assay: Growth inhibition of human HOP62 cells after 48 hrs by SRB assay; assay type: functional; conditions: HOP-62, 48 h
[27] = Growth inhibition of human Hs 578T cells after 48 hrs by SRB assay; assay type: functional
[28] = system: OVCAR-4; assay: Growth inhibition of human OVCAR4 cells after 48 hrs by SRB assay; assay type: functional; conditions: OVCAR-4, 48 h
[29] = system: MOLT-4; assay: Growth inhibition of human MOLT4 cells after 48 hrs by SRB assay; assay type: functional; conditions: MOLT-4, 48 h
[30] = system: M14; assay: Growth inhibition of human M14 cells after 48 hrs by SRB assay; assay type: functional; conditions: M14, 48 h
[31] = system: EKVX; assay: Growth inhibition of human EKVX cells after 48 hrs by SRB assay; assay type: functional
[32] = system: PC-3; assay: Growth inhibition of human PC3 cells after 48 hrs by SRB assay; assay type: functional; conditions: PC-3, 48 h
[33] = system: CAKI-1; assay: Growth inhibition of human Caki1 cells after 48 hrs by SRB assay; assay type: functional; conditions: CAKI-1, 48 h
[34] = system: SK-MEL-2; assay: Growth inhibition of human SK-MEL-2 cells after 48 hrs by SRB assay; assay type: functional; conditions: SK-MEL-2, 48 h
[35] = system: RXF 393; assay: Growth inhibition of human […] cells after 48 hrs by SRB assay; assay type: functional; conditions: RXF 393, 48 h
[36] = system: RPMI-8226; assay: Growth inhibition of human RPMI8226 cells after 48 hrs by SRB assay; assay type: functional; conditions: RPMI-8226, 48 h
[37] = system: U-251; assay: Growth inhibition of human U251 cells after 48 hrs by SRB assay; assay type: functional; conditions: U-251, 48 h
[38] = system: Malme-3M; assay: Growth inhibition of human MALME-3M cells after 48 hrs by SRB assay; assay type: functional
[39] = system: SNB-19; assay: Growth inhibition of human SNB19 cells after 48 hrs by SRB assay; assay type: functional; conditions: SNB-19, 48 h
[40] = system: HL-60(TB); assay: Growth inhibition of human HL-60(TB) cells after 48 hrs by SRB assay; assay type: functional; conditions: HL-60, 48 h
[41] = system: K562; assay: Cell cycle arrest in human K562 cells assessed as accumulation at S phase at 42.7 uM after 24 hrs using propidium iodide staining by flow cytometry; assay type: functional, cell-based
[42] = system: OVCAR-3; assay: Growth inhibition of human OVCAR-3 cells after 48 hrs by SRB assay; assay type: functional; conditions: OVCAR-3, 48 h
[43] = system: NCI-H23; assay: Growth inhibition of human NCI-H23 cells after 48 hrs by SRB assay; assay type: functional; conditions: NCI-H23, 48 h
[44] = system: T47D; assay: Growth inhibition of human T47D cells after 48 hrs by SRB assay; assay type: functional
[45] = system: HCT-15; assay: Growth inhibition of human HCT15 cells after 48 hrs by SRB assay; assay type: functional; conditions: HCT-15, 48 h
[46] = system: SF-539; assay: Growth inhibition of human SF539 cells after 48 hrs by SRB assay; assay type: functional; conditions: SF-539, 48 h
[47] = system: MDA-MB-231; assay: Growth inhibition of human MDA-MB-231 cells after 48 hrs by SRB assay; assay type: functional; conditions: MDA-MB-231, 48 h
[48] = system: NCI/ADR-RES; assay: Growth inhibition of human NCI/ADR-RES cells after 48 hrs by SRB assay; assay type: functional
[49] = system: OVCAR-8; assay: Growth inhibition of human OVCAR8 cells after 48 hrs by SRB assay; assay type: functional; conditions: OVCAR-8, 48 h
[50] = system: MCF7; assay: Growth inhibition of human MCF7 cells after 48 hrs by SRB assay; assay type: functional; conditions: MCF7, 48 h
[51] = system: SNB-75; assay: Growth inhibition of human SNB75 cells after 48 hrs by SRB assay; assay type: functional; conditions: SNB-75, 48 h
[52] = system: IGROV-1; assay: Growth inhibition of human IGROV1 cells after 48 hrs by SRB assay; assay type: functional; conditions: IGROV-1, 48 h
[53] = system: 786-0; assay: Growth inhibition of human 786-0 cells after 48 hrs by SRB assay; assay type: functional; conditions: 786-0, 48 h
[54] = system: SW-620; assay: Growth inhibition of human SW620 cells after 48 hrs by SRB assay; assay type: functional; conditions: SW-620, 48 h
[55] = system: SF-268; assay: Growth inhibition of human SF268 cells after 48 hrs by SRB assay; assay type: functional; conditions: SF-268, 48 h
[56] = system: NCI-H322M; assay: Growth inhibition of human NCI-H322M cells after 48 hrs by SRB assay; assay type: functional
[57] = system: K562; assay: Cell cycle arrest in human K562 cells assessed as accumulation at G2/M phase at 42.7 uM after 24 hrs using propidium iodide staining by flow cytometry; assay type: functional, cell-based
[58] = system: KM12; assay: Growth inhibition of human KM12 cells after 48 hrs by SRB assay; assay type: functional; conditions: KM12, 48 h
[59] = system: A498; assay: Growth inhibition of human A498 cells after 48 hrs by SRB assay; assay type: functional; conditions: A498, 48 h
[60] = system: SN12C; assay: Growth inhibition of human SN12C cells after 48 hrs by SRB assay; assay type: functional
[61] = system: A549; assay: Growth inhibition of human A549 cells after 48 hrs by SRB assay; assay type: functional; conditions: A549, 48 h

Compound: CCc1nc2cc(Cl)ccc2c(=O)n1-c1n[nH]c2ccccc12
- GI50 [1]: 11.7 µM
- GI50 [2]: 10.7 µM

Compound: O=C(Nc1ccccc1OC(F)(F)F)Nc1n[nH]c2ccccc12
- GI50 [3]: > 100 µM
- GI50 [4]: 26.1 µM
- GI50 [5]: 28.7 µM
- GI50 [6]: 51.7 µM
- GI50 [7]: 55.9 µM
- GI50 [8]: 42.2 µM
- GI50 [9]: 33.9 µM
- GI50 [10]: 12.9 µM
- GI50 [11]: 22.5 µM
- GI50 [12]: 51.5 µM
- GI50 [13]: 26.1 µM
- GI50 [14]: 39 µM
- GI50 [15]: 16.2 µM
- GI50 [16]: 0.0489 µM
- TGI [16]: 24 µM
- CC50 ([16]; read-out: LC50 (the source's name)): > 100 µM
- GI50 [17]: 31.7 µM
- GI50 [18]: 47.2 µM
- GI50 [19]: 37.9 µM
- GI50 [20]: 34.3 µM
- GI50 [21]: 76.4 µM
- GI50 [22]: 17.4 µM
- GI50 [23]: 15 µM
- GI50 [24]: 71.8 µM
- GI50 [2]: 42.7 µM
- GI50 [25]: 31.1 µM
- GI50 [26]: 19.6 µM
- GI50 [27]: 19.4 µM
- GI50 [28]: 37.7 µM
- GI50 [29]: 59.1 µM
- GI50 [30]: 22.5 µM
- GI50 [31]: 48.2 µM
- GI50 [32]: 31.4 µM
- GI50 [33]: 31 µM
- GI50 [34]: 81.4 µM
- GI50 [35]: 24.3 µM
- GI50 [36]: 52 µM
- GI50 [37]: 31.1 µM
- GI50 [38]: 76.9 µM
- GI50 [39]: 78.3 µM
- GI50 [40]: 17.9 µM
- Activity [41]: Active
- GI50 [42]: 90.8 µM
- GI50 [43]: 50 µM
- GI50 [44]: 37.5 µM
- GI50 [45]: 36.2 µM
- GI50 [46]: 30.5 µM
- GI50 [47]: 17.9 µM
- GI50 [48]: 44.2 µM
- GI50 [49]: 29.6 µM
- GI50 [50]: 1.75 µM
- GI50 [51]: 17.5 µM
- GI50 [52]: 4.59 µM
- GI50 [53]: 38.7 µM
- GI50 [54]: 36.7 µM
- GI50 [55]: 16.2 µM
- GI50 [56]: 81.6 µM
- Activity [57]: Active
- GI50 [58]: 23.4 µM
- GI50 [59]: > 100 µM
- GI50 [60]: 72.5 µM
- GI50 [61]: 15.7 µM
